Results taken from paper PMC7091366 (Archives of Pharmacal Research, 2014).
In brackets after ≈: the same amount, converted by molar mass. Entries after “also recorded” stand apart in the source; their conditions may differ.

Tests used:
[1] = test system: GAS-driven promoter (pGAS-Luc) in BHK-21 cells; test: GAS-driven promoter dual-luciferase reporter assay; type: cell-based, baby hamster; details: 10 μg/ml, 4 h, versus untreated cells
Cell viability = type: cell-based, baby hamster; details: hamster, BHK-21 cells, CC50, BHK-21 cells, MTT
[2] = test system: Japanese encephalitis virus (JEV) strain T1P1; test: JEV plaque reduction assay in BHK-21 cells; type: cell-based; details: JEV 100 pfu, BHK-21 monolayer, plaques after 3 days
[3] = test system: Japanese encephalitis virus (JEV); test: Quantitative assay of JEV yields by real-time RT-PCR; type: cell-based; details: for Ct (real-time RT-PCR of JEV RNA in supernatant) / ΔCt (Ct experimental − Ct control) / Reduction in virus RNA loads: 10 μg/ml; for Ct (real-time RT-PCR of JEV RNA in supernatant) / ΔCt (Ct experimental − Ct control): JEV MOI 1, BHK-21 cells, 72 h; for Reduction in virus RNA loads: supernatant of infected BHK-21 cells, three days post infection; for inhibition at 10 µg/mL: Japanese encephalitis virus, BHK-21, read-out: Inhibition of JEV yields
BHK-21 cells = test: Cell viability; type: cell-based, baby hamster; details: 72 h, MTT

Compound: O=C1c2cccc(O)c2C(=O)c2c(O)cc(CO)cc21 [Aloe-emodin]
- Activity of GAS-driven promoter (relative firefly luciferase) ([1]; listed as aloe emodin): significantly activated
- Activity of GAS-driven promoter (relative firefly luciferase) ([1]; listed as aloe-emodin): significantly increased
- CC50 at 72 h (Cell viability): 20.2 ± 1.01 µg/mL (≈ 74.7 µM)
- IC50 (JEV plaque reduction) [2]: 17.39 ± 0.58 µg/mL (≈ 64.4 µM)
- Ct (real-time RT-PCR of JEV RNA in supernatant) [3]: 32.25
- ΔCt (Ct experimental − Ct control) [3]: 6.72
- Reduction in virus RNA loads [3]: more than 1 log
- inhibition at 10 µg/mL [3]: 90%

Compound: Cc1cc(O)c2c(c1)C(=O)c1cccc(O)c1C2=O [Chrysophanol]
- Activity of GAS-driven promoter (relative firefly luciferase) [1]: significantly activated; also recorded: significantly increased
- CC50 at 72 h (Cell viability): 18.2 ± 5.53 µg/mL (≈ 71.5 µM)
- IC50 (JEV plaque reduction) [2]: 15.82 ± 2.62 µg/mL (≈ 62.2 µM)
- Ct (real-time RT-PCR of JEV RNA in supernatant) [3]: 29.26
- ΔCt (Ct experimental − Ct control) [3]: 3.73
- Reduction in virus RNA loads [3]: more than 1 log
- inhibition at 10 µg/mL [3]: 90%

Compound: Cc1cc(O)c2c(c1)C(=O)c1cc(O)cc(O)c1C2=O [Emodin]
- CC50 (BHK-21 cells): 5.49 ± 1.82 µg/mL (≈ 20.3 µM)

Compound: COc1cc(O)c2c(c1)C(=O)c1cc(C)cc(O)c1C2=O [Physcion]
- CC50 at 72 h (Cell viability): 20.7 ± 4.66 µg/mL (≈ 72.8 µM)
